Test results reported in patent US12600740B2, “Fluorinated N-acetyl glucosamine analogs and xylose derivatives” (UTI Limited Partnership, priority 2018, dated 2026).
“Also recorded” adds a separate entry of the source. Where two headings read alike, the source gives them in different places.

What was measured:
mouse astrocytes = experiment: Propidium iodide/calcein AM toxicity on astrocytes; type: cell-based; settings: 100 μM, 48 hours
Experimental: Toxicity on astrocytes was assayed with propidium iodide/calcein AM […]. Live cells convert calcein AM into a green fluorescent product, whereas dying/dead cells are stained with propidium iodide.
96-well plates were imaged with ImageXpress® Micro Cellular Imaging and Analysis System (Molecular Devices, Sunnyvale, CA). Twelve images per well were collected at ×10 magnification. Images were processed with MetaXpress analysis software. OPC outgrowth was calculated by the MetaExpress® “neurite outgrowth” software module which uses fluorescence and user-modified parameters to document the overall extent of processes emanating from the cell soma, regardless of size of the protrusions or the number of branches. This was previously detailed elsewhere [Cua, R. C.; Lau, L. W.; Keough, M. B.; Midha, R.; Apte, S. S.; and Yong, V. W. Overcoming neurite-inhibitory chondroitin sulfate proteoglycans in the astrocyte matrix. Glia 2013, 61 (6), 972-84]. Live-dead cell assay was calculated with MetaXpress analysis software with the “multiwavelength cell scoring”, which uses fluorescent intensity to measure co-localization of calcein AM, propidium iodide, and […]. Data from the 12 images were averaged to a single data point per well, wherein the OPC outgrowth data calculated from the MetaExpress® “neurite outgrowth” readout was divided by data from the same 12 fields of cell number that was acquired through the multiwavelength cell scoring. This provided mean outgrowth per cell per well, with four well replicates per treatment. Experiments were repeated at least twice.
A mixture was created containing propidium iodide (10 μg/ml) to stain dead cells, 10 μM Calcein AM (ThermoFisher, #C3100MP) to identify live cells, and 2 drops per ml of media of NucBlue™ Live ReadyProbes™ Reagent (ThermoFisher, #R37605) to identify nuclei. The mixture was added to plate media and incubated for 20-30 minutes at 37° C. and 5% CO2 before imaging. Excitation/emission of calcein-AM (λex 490 nm, λem 515 nm), propidium iodide (λex 535 nm, λem 617 nm), and nuclear blue (λex 350 nm, λem 461 nm) was performed using ImageXpress® Micro Cellular Imaging and Analysis System (Molecular Devices, Sunnyvale, CA) and analyzed by MetaExpress multiwavelength cell scoring program.

[1] = test system: CSPG production by astrocytes; experiment: Western blot of astrocyte conditioned medium, MAB2030 (chondroitin sulfate GAG stubs); type: cell-based, mouse; settings: for Reduce CSPG production: astrocytes, significance class
Procedure, shortened: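 Astrocytes (1×10^6 cells/well) were treated with 50 μM compound in AIM-V for 48 h, and pooled conditioned medium was concentrated for Western blot. Samples for MAB2030 were digested overnight at 37° C with 0.2 U/ml chondroitinase ABC; 2H6 blots were undigested. ECL band density was normalized to untreated astrocytes on the same gel.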

[2] = astrocyte conditioned media, 50 μM, 48 hours

## CCCC(=O)OC1OC(COC(C)=O)[C@@H](F)[C@H](OC(C)=O)C1NC(C)=O (mixture of isomers) [Compound 8, 2-Acetamido-3,6-di-O-acetyl-1-O-butanoyl-2,4-dideoxy-4-fluoro-α/β-D-glucopyranose]
Mouse astrocytes
  toxicity on astrocytes (propidium iodide/calcein AM): did not produce toxicity

## CC(=O)NC1C(O)OC(COC(C)=O)[C@@H](F)[C@@H]1OC(C)=O (mixture of isomers) [Compound 10]
Mouse astrocytes
  toxicity on astrocytes (propidium iodide/calcein AM): did not produce toxicity
[1]
  effect on CSPG production by astrocytes: most effectively reduced CSPG production

## CC(=O)NC1C(OC(C)=O)OC(COC(C)=O)[C@H](F)[C@@H]1OC(C)=O (mixture of isomers) [Compound 13, 2-Acetamido-1,3,6-tri-O-acetyl-2,4-dideoxy-4-fluoro-α/β-D-galactopyranose]
Mouse astrocytes
  toxicity on astrocytes (propidium iodide/calcein AM): did not produce toxicity
[1]; [2]
  effect on CSPG production by astrocytes: significantly reduced chondroitin sulfate GAGs; also recorded: most effectively reduced CSPG production

## CC(=O)NC1C(OC(C)=O)OC(COC(C)=O)C(F)(F)[C@@H]1OC(C)=O (mixture of isomers) [Compound 16, 2-Acetamido-1,3,6-tri-O-acetyl-2,4-dideoxy-4,4-difluoro-α/β-D-xylo-hexopyranose]
Mouse astrocytes
  toxicity on astrocytes (propidium iodide/calcein AM): did not produce toxicity
[1]; [2]
  effect on CSPG production by astrocytes: reduced CSPG production in astrocytes more effectively than Ac-4-F-GlcNAc 3; also recorded: most effectively reduced CSPG production

## CC(=O)N[C@H]1[C@H](OC(C)=O)O[C@H](COC(C)=O)[C@@H](OC(C)=O)[C@@H]1OC(C)=O [Compound 1, reference compound]
[1]; [2]
  effect on CSPG production by astrocytes: did not affect CSPG production; also recorded: did not lower CSPG production in astrocytes
[1]
  Reduce CSPG production: n.s.

## CC(=O)NC1C(OC(C)=O)OC(COC(C)=O)[C@@H](F)C1OC(C)=O (stereo partly shown) [Compound 3, reference compound]
Mouse astrocytes
  toxicity on astrocytes (propidium iodide/calcein AM): did not produce toxicity
[1]; [2]
  effect on CSPG production by astrocytes: most effectively reduced CSPG production
[1]
  Reduce CSPG production: *** (***p < 0.001)

## CCC(=O)OC1OC(COC(C)=O)[C@@H](F)[C@H](OC(C)=O)C1NC(C)=O (stereo partly drawn) [Compound 7, 2-Acetamido-3,6-di-O-acetyl-2,4-dideoxy-4-fluoro-1-O-propanoyl-α/β-D-glucopyranose]
Mouse astrocytes
  toxicity on astrocytes (propidium iodide/calcein AM): did not produce toxicity
[1]; [2]
  effect on CSPG production by astrocytes: most effectively reduced CSPG production

## CCCC(=O)OC[C@H]1OC(O)[C@H](NC(C)=O)[C@@H](OC(=O)CCC)[C@@H]1F (stereo partly drawn) [Compound 12, 2-Acetamido-3,6-di-O-butanoyl-2,4-dideoxy-4-fluoro-α/β-3-D-glucopyranose]
[1]; [2]
  effect on CSPG production by astrocytes: did not affect CSPG synthesis; also recorded: did not lower CSPG production in astrocytes
[1]
  Reduce CSPG production: n.s.
